Results published in the supplement of paper PMC11628255, “Interference of metal ions on the bioluminescent signal of firefly, Renilla, and NanoLuc luciferases in high-throughput screening assays” (Frontiers in Chemistry, 2024).

Columns and labels:
Assay in all cases: normalised percent inhibition of luminescence (vs positive and negative controls); higher = stronger inhibition
[1] = test system: firefly luciferase (FLuc)
Procedure: (§1)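 Concentration-response (>=11 concentrations) of metal salts on purified FLuc, NLuc or RLuc luminescence in screening (SC) or 100 mM HEPES (H) buffer; salt pre-incubated with enzyme 10 min at RT, read 10 min after substrate. Normalised percent inhibition vs plate positive (PTC-124, isradipine, BTS) and DMSO negative controls; triplicate wells.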

[2] = test system: Renilla luciferase (RLuc)
Procedure: as §1

[3] = test system: NanoLuc luciferase (NLuc)
Procedure: as §1

O=[N+]([O-])[O-].O=[N+]([O-])[O-].O=[N+]([O-])[O-].[Ga+3] [gallium(III) nitrate]
normalised percent inhibition [%]
Settings	100 mM HEPES buffer	screening conditions buffer
[1], metal salt concentration 0.0001 mM	-32.2	19.5
[1], metal salt concentration 0.00025 mM	-34.5	-10.2
[1], metal salt concentration 0.0005 mM	-31.8	10
[1], metal salt concentration 0.001 mM	-39.5	-11.4
[1], metal salt concentration 0.01 mM	27.3	–
[1], metal salt concentration 0.025 mM	90.2	-13.5
[1], metal salt concentration 0.05 mM	98.3	–
[1], metal salt concentration 0.1 mM	99.28	–
[1], metal salt concentration 0.5 mM	99.8	–
[1], metal salt concentration 1 mM	98.9	–
[1], metal salt concentration 2.5 mM	99.5	–
[1], metal salt concentration 5 mM	100.3	–
[2], metal salt concentration 0.002 mM	–	-6.33
[2], metal salt concentration 0.005 mM	–	-7.44
[2], metal salt concentration 0.01 mM	–	-4.58
[2], metal salt concentration 0.02 mM	–	-6.17
[2], metal salt concentration 0.05 mM	–	-6.25
[2], metal salt concentration 0.1 mM	–	-7.99
[2], metal salt concentration 0.2 mM	–	-8.55
[2], metal salt concentration 0.5 mM	–	-5.45
[2], metal salt concentration 1 mM	–	-8.55
[2], metal salt concentration 2.5 mM	–	-0.965
[2], metal salt concentration 5 mM	–	71.8
[3], metal salt concentration 0.002 mM	–	3.99
[3], metal salt concentration 0.005 mM	–	6.69
[3], metal salt concentration 0.01 mM	–	2.43
[3], metal salt concentration 0.02 mM	–	4.43
[3], metal salt concentration 0.05 mM	–	6.6
[3], metal salt concentration 0.1 mM	–	7.81
[3], metal salt concentration 0.2 mM	–	8.25
[3], metal salt concentration 0.5 mM	–	12.8
[3], metal salt concentration 1 mM	–	35
[3], metal salt concentration 2.5 mM	–	89.2
[3], metal salt concentration 5 mM	–	120

O=[N+]([O-])[O-].O=[N+]([O-])[O-].[Zn+2] [zinc nitrate]
normalised percent inhibition [%]
Settings	[1]	[2]	[3]
metal salt concentration 10 nM, 100 mM HEPES buffer	16.5	–	–
metal salt concentration 50 nM, 100 mM HEPES buffer	-0.254	–	–
metal salt concentration 0.0001 mM, 100 mM HEPES buffer	-1.38	–	–
metal salt concentration 0.00025 mM, 100 mM HEPES buffer	5.03	–	–
metal salt concentration 0.0005 mM, 100 mM HEPES buffer	35.7	–	–
metal salt concentration 0.001 mM, 100 mM HEPES buffer	47.4	–	–
metal salt concentration 0.002 mM, screening conditions buffer	21.1	-5.83	0.728
metal salt concentration 0.005 mM, screening conditions buffer	16.4	-7.07	-0.897
metal salt concentration 0.01 mM, screening conditions buffer	20.5	-4.95	10.7
metal salt concentration 0.02 mM, screening conditions buffer	17.9	-5.53	7.25
metal salt concentration 0.025 mM, 100 mM HEPES buffer	86.7	–	–
metal salt concentration 0.05 mM, 100 mM HEPES buffer	92.6	–	–
metal salt concentration 0.05 mM, screening conditions buffer	11.7	-2.83	35.8
metal salt concentration 0.1 mM, 100 mM HEPES buffer	96.3	–	–
metal salt concentration 0.1 mM, screening conditions buffer	28.6	-8.31	66
metal salt concentration 0.2 mM, screening conditions buffer	15	-2.75	78.9
metal salt concentration 0.5 mM, 100 mM HEPES buffer	100.2	–	–
metal salt concentration 0.5 mM, screening conditions buffer	29.1	-0.599	77
metal salt concentration 1 mM, 100 mM HEPES buffer	100.1	–	–
metal salt concentration 1 mM, screening conditions buffer	46.4	8.71	89
metal salt concentration 2.5 mM, 100 mM HEPES buffer	100.4	–	–
metal salt concentration 2.5 mM, screening conditions buffer	100.6	-1	111
metal salt concentration 5 mM, 100 mM HEPES buffer	100.2	–	–
metal salt concentration 5 mM, screening conditions buffer	100.2	85.5	126

O=[N+]([O-])[O-].O=[N+]([O-])[O-].[Pb+2] [lead(II) nitrate]
normalised percent inhibition [%]
Settings	[1]	[2]	[3]
metal salt concentration 0.0001 mM, 100 mM HEPES buffer	-33.9	–	–
metal salt concentration 0.00025 mM, 100 mM HEPES buffer	-19.7	–	–
metal salt concentration 0.0005 mM, 100 mM HEPES buffer	-15.9	–	–
metal salt concentration 0.001 mM, 100 mM HEPES buffer	-1.03	–	–
metal salt concentration 0.002 mM, screening conditions buffer	–	-20.9	-1.02
metal salt concentration 0.005 mM, screening conditions buffer	–	-16.2	-3.52
metal salt concentration 0.01 mM, screening conditions buffer	–	-2.6	-2.27
metal salt concentration 0.02 mM, screening conditions buffer	–	-5.61	-3.22
metal salt concentration 0.025 mM, 100 mM HEPES buffer	88.9	–	–
metal salt concentration 0.05 mM, 100 mM HEPES buffer	94.75	–	–
metal salt concentration 0.05 mM, screening conditions buffer	–	-11.8	-4.15
metal salt concentration 0.1 mM, 100 mM HEPES buffer	96.7	–	–
metal salt concentration 0.1 mM, screening conditions buffer	–	-5.46	-7.45
metal salt concentration 0.2 mM, screening conditions buffer	–	-6.41	0.428
metal salt concentration 0.5 mM, 100 mM HEPES buffer	100.1	–	–
metal salt concentration 0.5 mM, screening conditions buffer	–	-3.99	15.7
metal salt concentration 1 mM, 100 mM HEPES buffer	100.4	–	–
metal salt concentration 1 mM, screening conditions buffer	–	2.9	11.5
metal salt concentration 2.5 mM, 100 mM HEPES buffer	100.5	–	–
metal salt concentration 2.5 mM, screening conditions buffer	–	53.3	52
metal salt concentration 5 mM, 100 mM HEPES buffer	99.63	–	–
metal salt concentration 5 mM, screening conditions buffer	–	94.9	129

CC#N.CC#N.CC#N.CC#N.F[B-](F)(F)F.[Cu+] [tetrakis(acetonitrile)copper(I) tetrafluoroborate]
normalised percent inhibition [%]
Settings	[1]	[2]	[3]
metal salt concentration 15.6 nM, 100 mM HEPES buffer	31.6	–	–
metal salt concentration 31.25 nM, 100 mM HEPES buffer	19.4	–	–
metal salt concentration 62.5 nM, 100 mM HEPES buffer	94.7	–	–
metal salt concentration 0.0001 mM, 100 mM HEPES buffer	98.82	-13.8	2.08
metal salt concentration 0.000125 mM, 100 mM HEPES buffer	99.64	–	–
metal salt concentration 0.00025 mM, 100 mM HEPES buffer	99.92	12.4	-0.342
metal salt concentration 0.0005 mM, 100 mM HEPES buffer	100.6	-2.77	3.53
metal salt concentration 0.0005 mM, screening conditions buffer	19.7	–	–
metal salt concentration 0.001 mM, 100 mM HEPES buffer	100.1	-10.8	4.37
metal salt concentration 0.001 mM, screening conditions buffer	-12.4	–	–
metal salt concentration 0.002 mM, screening conditions buffer	6.86	12.9	0.453
metal salt concentration 0.005 mM, screening conditions buffer	13.5	16.7	0.553
metal salt concentration 0.01 mM, screening conditions buffer	8.64	11.3	1.88
metal salt concentration 0.02 mM, screening conditions buffer	7.18	2.75	9.53
metal salt concentration 0.025 mM, 100 mM HEPES buffer	100.5	75.8	5.84
metal salt concentration 0.025 mM, screening conditions buffer	20.1	–	–
metal salt concentration 0.05 mM, 100 mM HEPES buffer	100.3	102	40.1
metal salt concentration 0.05 mM, screening conditions buffer	3.96	13.4	91.9
metal salt concentration 0.1 mM, 100 mM HEPES buffer	100.5	105	92.9
metal salt concentration 0.1 mM, screening conditions buffer	24.1	9.12	158
metal salt concentration 0.2 mM, screening conditions buffer	31.5	3.41	158.7
metal salt concentration 0.25 mM, 100 mM HEPES buffer	100.3	–	–
metal salt concentration 0.5 mM, 100 mM HEPES buffer	100.5	106	101.8
metal salt concentration 0.5 mM, screening conditions buffer	56.9	106.2	160
metal salt concentration 1 mM, 100 mM HEPES buffer	100.3	107.5	101.8
metal salt concentration 1 mM, screening conditions buffer	99.7	106.7	159.9
metal salt concentration 2.5 mM, 100 mM HEPES buffer	100.5	106	101.9
metal salt concentration 2.5 mM, screening conditions buffer	100.3	106.6	161.2
metal salt concentration 5 mM, 100 mM HEPES buffer	100.3	107	101.9
metal salt concentration 5 mM, screening conditions buffer	100.4	106.5	161.65
metal salt concentration 10 mM, screening conditions buffer	100.1	–	–
metal salt concentration 20 mM, screening conditions buffer	100.2	–	–

[Cl][Fe][Cl] [iron(II) chloride]
normalised percent inhibition [%]
Settings	[1]	[2]	[3]
metal salt concentration 0.0001 mM, 100 mM HEPES buffer	-43.3	-50	-0.558
metal salt concentration 0.00025 mM, 100 mM HEPES buffer	-33.6	-20.5	-2.01
metal salt concentration 0.0005 mM, 100 mM HEPES buffer	-33.5	-32.5	-2.14
metal salt concentration 0.001 mM, 100 mM HEPES buffer	-45.9	-19.3	-0.324
metal salt concentration 0.002 mM, screening conditions buffer	-3.52	-4.21	-2.42
metal salt concentration 0.005 mM, screening conditions buffer	1.02	1.72	1.43
metal salt concentration 0.01 mM, screening conditions buffer	2	-1.72	5.7
metal salt concentration 0.02 mM, screening conditions buffer	1.67	16.1	-0.122
metal salt concentration 0.025 mM, 100 mM HEPES buffer	53.6	16.3	3.65
metal salt concentration 0.05 mM, 100 mM HEPES buffer	99.99	43.1	5.35
metal salt concentration 0.05 mM, screening conditions buffer	3.62	-2.31	-5.75
metal salt concentration 0.1 mM, 100 mM HEPES buffer	100.4	86.8	17.2
metal salt concentration 0.1 mM, screening conditions buffer	14.5	54.2	22.5
metal salt concentration 0.2 mM, screening conditions buffer	22.9	71.6	40.4
metal salt concentration 0.5 mM, 100 mM HEPES buffer	99.99	105	61.9
metal salt concentration 0.5 mM, screening conditions buffer	98	84.8	64
metal salt concentration 1 mM, 100 mM HEPES buffer	100.5	103	85.4
metal salt concentration 1 mM, screening conditions buffer	100.7	93.3	96
metal salt concentration 2.5 mM, 100 mM HEPES buffer	100.2	108.1	99.74
metal salt concentration 2.5 mM, screening conditions buffer	99.42	105	151
metal salt concentration 5 mM, 100 mM HEPES buffer	100.3	108	101.7
metal salt concentration 5 mM, screening conditions buffer	100.9	106	160.2

[Cl][Pt-2]([Cl])([Cl])[Cl].[K+].[K+] [potassium tetrachloroplatinate(II)]
normalised percent inhibition [%]
Settings	[1]	[2]	[3]
metal salt concentration 0.0001 mM, 100 mM HEPES buffer	-10.3	6.41	1.21
metal salt concentration 0.00025 mM, 100 mM HEPES buffer	4.97	4.68	-0.51
metal salt concentration 0.0005 mM, 100 mM HEPES buffer	6.27	-6.41	2.19
metal salt concentration 0.001 mM, 100 mM HEPES buffer	12.9	-11.3	0.76
metal salt concentration 0.002 mM, screening conditions buffer	23.2	13.4	6.88
metal salt concentration 0.005 mM, screening conditions buffer	28.2	5.74	2.83
metal salt concentration 0.01 mM, screening conditions buffer	32.2	8.68	1.24
metal salt concentration 0.02 mM, screening conditions buffer	39.4	2.57	5.06
metal salt concentration 0.025 mM, 100 mM HEPES buffer	39.2	8.38	4.56
metal salt concentration 0.05 mM, 100 mM HEPES buffer	56.4	-3.94	10.3
metal salt concentration 0.05 mM, screening conditions buffer	68.7	19.4	18.1
metal salt concentration 0.1 mM, 100 mM HEPES buffer	79.8	5.67	15.1
metal salt concentration 0.1 mM, screening conditions buffer	86	27.8	41.9
metal salt concentration 0.2 mM, screening conditions buffer	98.8	41.3	60.3
metal salt concentration 0.5 mM, 100 mM HEPES buffer	100.5	40.7	76.6
metal salt concentration 0.5 mM, screening conditions buffer	100.5	66.7	91.6
metal salt concentration 1 mM, 100 mM HEPES buffer	100.2	69.3	87.7
metal salt concentration 1 mM, screening conditions buffer	99.57	95.3	116
metal salt concentration 2.5 mM, 100 mM HEPES buffer	100.4	97.4	93.7
metal salt concentration 2.5 mM, screening conditions buffer	100.7	105.3	129.7
metal salt concentration 5 mM, 100 mM HEPES buffer	100.4	106	96.98
metal salt concentration 5 mM, screening conditions buffer	100.8	106.2	134.6
